Data taken from ChEMBL document CHEMBL2057202, “Investigation of substituted 6-aminohexanoates as skin penetration enhancers” (Bioorg Med Chem, 2012).

Assays:
[1] = Lipophilicity, log K of the compound by RP-HPLC analysis; type: physicochemical
SK-N-MC = assay: Antiproliferative activity against human SK-N-MC cells after 72 hrs by MTT assay; type: cell-based
[2] = Potentiation of theophylline transdermal permeation in pig ear skin assessed as enhancement ratio at 20 mg after 24 hrs by Franz diffusion cell method; type: ADME, Sus scrofa

log K [1] | IC50 (SK-N-MC) | Ratio [2] | Compound
-0.0201 | > 6.25 µM | 2.71 | CCCCCCOC(=O)CCCCCN1C(=O)CCC1=O
0.15 | > 6.25 µM | 2.64 | CCCCCCCOC(=O)CCCCCN1C(=O)CCC1=O
0.3239 | > 6.25 µM | 2.55 | CCCCCCCCOC(=O)CCCCCN1C(=O)CCC1=O
0.4901 | > 6.25 µM | 3.14 | CCCCCCCCCOC(=O)CCCCCN1C(=O)CCC1=O
0.6548 | > 6.25 µM | 3.54 | CCCCCCCCCCOC(=O)CCCCCN1C(=O)CCC1=O
0.8368 | > 6.25 µM | 3.51 | CCCCCCCCCCCOC(=O)CCCCCN1C(=O)CCC1=O
1.0091 | > 6.25 µM | 2.93 | CCCCCCCCCCCCOC(=O)CCCCCN1C(=O)CCC1=O
-0.0764 | > 6.25 µM | 1.93 | CCCCCCOC(=O)C(CCCCN1C(=O)CCC1=O)N1CCCCCC1=O (stereo unspecified)
0.0658 | > 6.25 µM |  | CCCCCCCOC(=O)C(CCCCN1C(=O)CCC1=O)N1CCCCCC1=O (stereo unspecified)
0.2462 | > 6.25 µM | 2.24 | CCCCCCCCOC(=O)C(CCCCN1C(=O)CCC1=O)N1CCCCCC1=O (stereo unspecified)
0.4095 | > 6.25 µM | 1.87 | CCCCCCCCCOC(=O)C(CCCCN1C(=O)CCC1=O)N1CCCCCC1=O (stereo unspecified)
0.6158 | > 6.25 µM |  | CCCCCCCCCCOC(=O)C(CCCCN1C(=O)CCC1=O)N1CCCCCC1=O (stereo unspecified)
0.7462 | > 6.25 µM | 1.81 | CCCCCCCCCCCOC(=O)C(CCCCN1C(=O)CCC1=O)N1CCCCCC1=O (stereo unspecified)
0.9081 | > 6.25 µM | 2.48 | CCCCCCCCCCCCOC(=O)C(CCCCN1C(=O)CCC1=O)N1CCCCCC1=O (stereo unspecified)
 |  | 1.13 | CCCCCCCC/C=C\CCCCCCCC(=O)O [OLEIC ACID]
